US9506907B2, “Bioengineered human trabecular meshwork for biological applications” (The Research Foundation of State University of New York, priority 2012, dated 2016)

Columns and labels:
[1] = tested on: bioengineered HTM (primary HTM cells on gelatin-coated 12 μm SU-8 scaffolds); assay: Perfusion of bioengineered HTM on SU-8 scaffold: transmembrane pressure at constant flow; assay type: cell-based, human
Source text: 1. The flow system apparatus (FIG. 2) incorporating the principles and features of this invention is contained within a controlled environment, which herein comprises of a stand-alone perfusion chamber, with a cell growth medium entry system (FIG. 2c; 204) and a screening agent (for example a glaucoma drug) entry system (FIG. 2c; 204) as shown in FIG. 2c. The system allows for the screening agent to be added to the perfusate at a pre-determined concentration for a pre-determined number of hours. […]
8. […] Back pressures were continuously monitored with a pressure transducer and recorded. […]
(§1) A flow system apparatus for the controlled flow pressure measurement was constructed as shown in FIG. 2C was contained in a perfusion chamber housing comprised of at least a perfusion chamber with an integrated pressure transducer (FIG. 2C; 206), the sterilized, HTM biocompatible coated, SU-8 3-D micro- and nanostructured scaffold with or without HTM cells placed within a cell-culture insert (FIG. 2A; 202) and were secured in the scaffold holder, comprising at least a bottom element adapted for effluent (FIG. 2A; 203), a top element adapted for media entry (FIG. 2A; 201) inside the perfusion chamber (FIG. 2c). […] Back pressures were continuously monitored with a pressure transducer (FIG. 2C; 206) and recorded. […]

[2] = tested on: HTM cells grown on SU-8 scaffolds (morphology, F-actin cytoskeleton); assay: SEM and confocal imaging of HTM cells on SU-8 scaffolds after Lat-B perfusion; assay type: cell-based, human; conditions: FIG. 15F
Source text: 11. Follow up cell characterization studies may be conducted as desired with standard techniques well known to those of skill in the art. For this invention, samples were fixed and stained for SEM and confocal image analysis as described herein (FIGS. 11-15).
Cells were characterized using standard procedures for SEM, Immunocytochemistry and confocal imaging, well known to those of skill in the art.
as §1, with “2c). This flow system allowed for simultaneous control of the flow and measurement of the transmembrane pressure, permitting the exploration of the outflow characteristics of the in vitro HTM model.” for “2c).”

## C/C1=C/C(=O)O[C@@H]2C[C@@H](CC[C@H](C)/C=C\CC1)O[C@@](O)([C@@H]1CSC(=O)N1)C2 [Lat-B, latruncunlin-B]
[1]; FIG. 16, indicates decreased flow resistance
  perfusion pressure of the artificial trabecular meshwork after Lat-B treatment: decreased dramatically
[1]; Lat-B added to the perfusate at 2 μM for 4 hours, constant flow, 34° C., N=8, p<0.05 (FIG. 16)
  decrease of the resistance to flow: 92±6%
[2]
  F-actin cytoskeleton (confocal): elongated actin fibers were disturbed and became punctate actin bundles
